From ChEMBL document CHEMBL4261505, “Imidazoles as potential anticancer agents” (Medchemcomm, 2017) come the findings set out here.

The test system of assay [1] is P388. The assay is described as follows: Antitumor activity against mouse P388 cells implanted in DBA/2J mouse assessed as increase in mouse life span at 200 mg/kg/day, po for 4 consecutive days relative to control. In kind it is functional.
In the next assay the test system is NUGC-3. The assay is described as follows: Antiproliferative activity against human NUGC3 cells after 72 hrs by MTT assay. In kind it is functional, cell-based. To be noted: NUGC-3, 72 h. (In general: Tetrazolium assays rely on reduction of a dye to a coloured formazan, in cell work by metabolically active cells.)
Assay [2] can be described thus: Antiproliferative activity against human WM3629 cells. It is filed as functional.
Assay [3] deals with HeLa. The assay is described as follows: Antiproliferative activity against human HeLa cells. In kind it is functional, cell-based.
Assay [4] deals with HeLa. The assay is described as follows: Antiproliferative activity against human HeLa cells after 72 hrs by MTT assay. It is filed as functional, cell-based.
Assay [5] relates to MCF7. The assay is described as follows: Antiproliferative activity against human MCF7 cells after 72 hrs by MTT assay. As to conditions: MCF7, 72 h. It is filed as functional, cell-based.
The test system of a further assay is LS180. The assay is described as follows: Antiproliferative activity against human LS180 cells after 72 hrs by MTT assay. It is filed as functional, cell-based. As to conditions: LS180, 72 h.
Another assay has as its system Jurkat. The assay is described as follows: Antiproliferative activity against human Jurkat cells after 72 hrs by MTT assay. It is filed as functional, cell-based.
For another assay, the system named is A549. The assay is described as follows: Antiproliferative activity against human A549 cells. It is filed as functional, cell-based.
The next assay has as its system A-431. The assay is described as follows: Antitumor activity against human A431 cells xenografted in athymic mouse assessed as tumor growth inhibition at 25 mg/kg relative to control. It is filed as functional. As to conditions: read-out: TGI.
Assay [6] relates to MCF7. The assay is described as follows: Antiproliferative activity against human MCF7 cells. It is filed as functional, cell-based.
In the next assay the test system is HCT-116. The assay is described as follows: Antiproliferative activity against human HCT116 cells. In kind it is functional, cell-based.
Assay [7] has as its system P388. The assay is described as follows: Antitumor activity against mouse P388 cells implanted in DBA/2J mouse assessed as increase in mouse life span at 5 mg/kg, iv relative to control. It is filed as functional.
A further assay concerns the target T1, Cytochrome P450 26A1 (Homo sapiens, UniProt O43174).
T1 sequence (O43174 whole entry): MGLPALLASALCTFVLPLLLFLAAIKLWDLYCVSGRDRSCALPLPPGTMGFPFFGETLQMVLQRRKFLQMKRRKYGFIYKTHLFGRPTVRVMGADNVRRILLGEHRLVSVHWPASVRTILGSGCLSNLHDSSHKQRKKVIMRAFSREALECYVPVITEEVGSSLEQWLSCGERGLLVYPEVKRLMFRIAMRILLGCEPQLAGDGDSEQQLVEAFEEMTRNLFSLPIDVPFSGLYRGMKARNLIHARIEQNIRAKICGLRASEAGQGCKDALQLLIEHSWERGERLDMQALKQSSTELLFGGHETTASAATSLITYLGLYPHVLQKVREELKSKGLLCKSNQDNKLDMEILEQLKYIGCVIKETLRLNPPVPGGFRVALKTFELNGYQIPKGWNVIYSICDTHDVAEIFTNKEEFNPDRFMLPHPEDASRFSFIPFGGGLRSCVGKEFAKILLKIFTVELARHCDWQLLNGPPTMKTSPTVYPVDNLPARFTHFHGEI
The assay is described as follows: Inhibition of CYP26A1 (unknown origin).

Turning to `Nc1nc(-c2cccs2)cn1-c1nc(-c2ccccc2)cs1`, the ILS – broadly, how much longer treated animals lived than controls – at 200 mg/kg/day in the assay on P388 [1] came to 75%. It took 0.05 µM to reach half-maximal inhibition in the assay with NUGC-3 (IC50).

`CNC(=O)c1cc(Oc2ccc(NC(=O)Nc3ccc(Cl)c(C(F)(F)F)c3)cc2)ccn1` [SORAFENIB]: growth in assay [2] was halved (GI50) at 0.78 µM.

On to `CCCCCCCn1c(CCCC)nc(Cl)c1-c1nc2ccccc2[nH]1`, for which half-maximal inhibition in the assay on HeLa [3] (IC50) required 25.3 µM.

As for `O=C1CCCc2nc3c(c(-c4ncc[nH]4)c21)C(=O)c1ccccc1-3`, the IC16 in the assay on HeLa [4] is > 100 µM; in the assay on MCF7 [5], > 100 µM; in the assay on LS180, > 100 µM; with Jurkat, 1.7 µM. Further, the IC50 (usually the concentration that gives 50% inhibition) was > 100 µM in the assay with HeLa [4], > 100 µM with MCF7 [5], > 100 µM in the assay with LS180 and 70.9 µM in the assay with Jurkat.

Take `CC1CC(=O)C2=C(C1)NC1=C(C(=O)c3ccccc31)C2c1ncc([N+](=O)[O-])n1C` (stereo unspecified): the IC16 in the assay with HeLa [4] is 9.2 µM; with MCF7 [5], > 25 µM; in the assay with LS180 it was 12.5 µM; with Jurkat, 0.7 µM. The IC50 with HeLa [4], with MCF7 [5], with LS180 and with Jurkat was > 25 µM throughout.

Consider `C[C@H](O)CNc1nccc(-n2ccnc2-c2cccc(NC(=O)c3ccc(Cl)c(C(F)(F)F)c3)c2)n1`, for which the GI50 (as a rule, the concentration at which growth is held to half of that of the control) in assay [2] was determined as 0.62 µM.

As to `CC1CC(=O)C2=C(C1)N(c1ccccc1)C1=C(C(=O)c3ccccc31)C2c1nc(Cl)c(Cl)[nH]1` (stereo unspecified), the IC16 in the assay with HeLa [4] amounted to 10.7 µM; with MCF7 [5] it was 13.6 µM; in the assay on LS180 it was 19.4 µM; in the assay on Jurkat, 1.7 µM. In addition, the IC50 in the assay with HeLa [4] is 59 µM; in the assay with MCF7 [5] it was 77.1 µM; with LS180, > 100 µM; in the assay on Jurkat, 95.8 µM.

On to `COc1ccc(-c2sc3nc(-c4ccc(F)cc4)c(C(=O)c4cccnc4)n3c2-c2ccc(OC)cc2)cc1`, for which it took 0.64 µM to reach half-maximal inhibition with A549 (IC50).

As for `COc1ccc(Cc2[nH]c(=N)n(C)c2Cc2ccc(O)cc2)cc1` [NAAMINE A], in the assay with A-431, the inhibition in vivo at 25 mg/kg was 85%.

As for `CS(=O)(=O)c1nc2cc(Cl)c(Cl)cc2n1C1CCCC1`, the half-maximal inhibitory concentration (IC50) in the assay on MCF7 [6] and with HCT-116 was 0.6 µM throughout.

In turn, `C[C@H](O)CNc1nccc(-n2ccnc2-c2cccc(NC(=O)Nc3ccc(Cl)c(Cl)c3)c2)n1` had a GI50 in assay [2] of 0.65 µM.

As to `CC[C@]1(O)C[C@@H]2CN(CCc3c([nH]c4ccccc34)[C@@](C(=O)OC)(c3cc4c(cc3OC)N(C)[C@H]3[C@@](O)(C(=O)OC)[C@H](OC(C)=O)[C@]5(CC)C=CCN6CC[C@]43[C@@H]65)C2)C1` [VINBLASTINE], in the assay with P388 [7], the increase in lifespan (ILS) at 5 mg/kg amounted to 83%.

On to `Cc1nc2cc(Cl)c(Cl)cc2n1C1CCCC1`, for which the figures for the IC50 with MCF7 [6] and in the assay with HCT-116 were 40 µM and 3 µM, respectively.

Molecule `CCCCc1nc(Cl)c(-c2nc3ccccc3[nH]2)n1Cc1cccc(C)c1` yielded an IC50 in the assay with HeLa [3] of 30.2 µM. This lies in the double-digit micromolar range.

`COC(=O)C(C)(C)C(c1ccc(Nc2ccc3ccccc3c2)cc1)n1ccnc1` (stereo unspecified) had a half-inhibitory concentration (IC50) at Cytochrome P450 26A1 of 0.03 µM.

On to `C[S+]([O-])c1nc2cc(Cl)c(Cl)cc2n1C1CCCC1` (stereo unspecified), for which the IC50 with MCF7 [6] and in the assay on HCT-116 was 0.5 µM throughout.
